System: drug-resistant Mycobacterium tuberculosis
Settings: 10 micrograms per ml; seven days; strain resistant to PAS, streptomycin and isoniazid

| Compound | inhibition of the growth of Mycobacterium tuberculosis [%] |
| --- | --- |
| C[C@@H](O)[C@@H]1NC(=O)[C@H](CCCCN)NC(=O)[C@@H](Cc2c[nH]c3ccccc23)NC(=O)[C@H](Cc2ccccc2)NC(=O)[C@@H](NC(=O)[C@H](N)Cc2ccccc2)CSSC[C@@H](C(=O)N[C@H](CO)[C@@H](C)O)NC1=O [Peptide 2, D-Phe-Cys-Phe-D-Trp-Lys-Thr-Cys-L-threoninol] | 100 |
| Ala-lle-Phe-Ile-Phe-Ile-Arg-Trp-Leu-Leu-Lys-Leu-Gly-His-His-Gly-Arg-Ala-Pro-Pro-OH [Peptide 1] | 100 |

— US20100273701A1, “USE OF SALUSIN BETA ALONE OR IN COMBINATION WITH OCTREOTIDE AS A THERAPEUTIC AGENT” (priority 2007, published 2010)
